Assay results published in patent US5112804A, “Pharmaceutical composition and method of intranasal administration” (Temple University of the Commonwealth System of Higher …, priority 1989, dated 1992).

System: blood glucose level
Assay: Insulin absorption animal study, continuous blood glucose monitoring after nasal administration
Type: in vivo, dog
Settings: dogs
Excerpt: The hypoglycemic effect of the above preparations was confirmed in animal glucose monitoring studies utilizing continuous glucose monitoring with the device described in J. Clin. Endocrinol. Metab. 53: 1145 (1984). The device consists of a system for nonthrombogenic blood withdrawal coupled to a system for blood glucose measurement. The blood withdrawal system includes a disposable sterile intravenous needle and catheter connected to a peristaltic pump. The inside wall of the catheter is coated with tridodecyclmethylammonium chloride complexed with heparin to provide a nonthrombogenic surface. Blood is continuously withdrawn at a rate of 12 ml/hr from the experimental animal via the nonthrombogenic catheter. The blood is diluted in a Plexiglass mixing chamber with six volumes of phosphate buffer solution (0.015 M; pH 7.4) containing 10 IU/ml heparin and then moved into the device's sensory chamber. […]
Six preconditioned female mongrel hound dogs treated for worms, weighing 19-20 kg, were fasted overnight and anesthetized in the morning with intravenous "NEMBUTAL" sodium pentobarbital (250 mg initial dose, 25 mg every 30 minutes for maintenance). […] Blood glucose level was continuously monitored. The resulting decrease in blood glucose level for the insulin dosages in Table 1 are recorded in FIGS. 1 to 12.

Q: With `CC1(C)[C@@H](O)CC[C@]2(C)[C@H]3C(=O)C=C4[C@@H]5C[C@@](C)(C(=O)O)CC[C@]5(C)CC[C@@]4(C)[C@]3(C)CC[C@@H]12` [glycyrrhetinic acid] as the compound, how does the “enhancing absorption of insulin across the nasal membrane” value read?
A: effective
